These results are taken from patent US20250312352A1, “GLP-1R MODULATING COMPOUNDS” (Gilead Sciences, Inc., priority 2021, published 2025).

T1 sequence (P43220 24-463): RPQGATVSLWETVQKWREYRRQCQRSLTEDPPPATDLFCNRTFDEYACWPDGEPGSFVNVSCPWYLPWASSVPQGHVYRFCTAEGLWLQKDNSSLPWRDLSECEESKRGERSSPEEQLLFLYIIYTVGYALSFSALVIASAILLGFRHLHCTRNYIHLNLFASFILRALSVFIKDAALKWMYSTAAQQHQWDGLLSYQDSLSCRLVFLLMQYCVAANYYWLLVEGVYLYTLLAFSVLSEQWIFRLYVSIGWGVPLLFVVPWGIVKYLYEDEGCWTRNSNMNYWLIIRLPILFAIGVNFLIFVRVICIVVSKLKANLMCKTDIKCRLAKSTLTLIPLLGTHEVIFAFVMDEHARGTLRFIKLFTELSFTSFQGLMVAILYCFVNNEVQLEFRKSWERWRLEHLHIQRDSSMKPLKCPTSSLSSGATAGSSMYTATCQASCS

The assay has as its target T1, GLP-1R (Homo sapiens, UniProt P43220).
T1 construct: host or cells: CHO cells
The assay is described as follows: GLP-1R activation cAMP assay (Assay 1 or Assay 2). The class given is cell-based. The note with it: cAMP increase in CHO cells stably expressing GLP-1R; compounds run on one of the two cAMP assays. How it is done:
GLP-1R ACTIVATION—cAMP Assay 1
GLP-1R activation by compounds of the present disclosure was quantified by measuring cAMP increase in CHO cells stably expressing GLP-1R (MultiSpan product #C1267-1a). The cells were harvested and plated in growth medium (DMEM/F-12 (Corning product #10-090-CV) supplemented with 10% FBS (HyClone product #SH30071-03), penicillin/streptomycin (Corning product #30-002CI) and 10 μg/ml puromycin (Gibco product #A11138-03)) at 1,000 cells/well in a 384-well plate (Greiner product #781080). The cells were then incubated overnight at 37° C., 5% CO2. The next day, the medium was removed and the cells were washed with DPBS (Corning product #21-031-CM) before adding the assay medium (HBSS, Corning product #21-023-CV) with 20 mM Hepes (Gibco product #15630-080) and 0.1% BSA (Rockland Immunochemicals product #BSA-1000)). Following the medium change, the cells were incubated for 1 hour at 37° C., 5% CO2. The tested GLP-1 compound was added to the cells in a 10-point dose response followed by a 30-minute incubation at 37° C., 5% CO2. cAMP concentration increase was then detected using Cisbio's cAMP Gs Dynamic Kit (product #62AM4PEC) according to the manufacturer's protocol. The response was plotted against the log of the agonist concentration and fitted to a sigmoidal equation to determine the EC50.
GLP-1R ACTIVATION—cAMP Assay 2
GLP-1R activation by small molecule agonists was quantified by measuring cAMP increase in CHO cells stably expressing GLP-1R (MultiSpan product #C1267-1a). 50 nL of agonists were pre-spotted in a 10-point dose response onto 384-well plate (Corning product #CL3826) using the Labcyte Echo System.
In general terms: Changes in cAMP serve as a functional read-out for many G protein-coupled receptors.
With `Cc1cc(Cc2nc3ccc(C(=O)O)cc3n2C[C@@H]2CCO2)c(Cl)cc1-c1ccc(F)c(OCc2ncc(C(F)(F)F)s2)n1` [Example 369, (S)-2-(2-chloro-4-(5-fluoro-6-((5-(trifluoromethyl)thiazol-2-yl)methoxy)pyridin-2-yl)-5-methylbenzyl)-1-(oxetan-2-ylmethyl)-1H-benzo[d]imidazole-6-carboxylic acid], it took 0.683 nM to reach a half-maximal effect (EC50).

Regarding `Cc1cc(Cc2nc3ccc(C(=O)O)cc3n2[C@@H]2COCC2(C)C)c(Cl)cc1-c1ccc(F)c(OCc2ncc(C(C)(F)F)s2)n1` [Example 427, (S)-2-(2-chloro-4-(6-((5-(1,1-difluoroethyl)thiazol-2-yl)methoxy)-5-fluoropyridin-2-yl)-5-methylbenzyl)-1-(4,4-dimethyltetrahydrofuran-3-yl)-1H-benzo[d]imidazole-6-carboxylic acid], it took 1.42 nM to reach a half-maximal effect (EC50).

With `O=C(O)c1ccc2nc(Cc3cc(F)c(-c4cccc(OCc5cc6n(n5)CCC6)n4)cc3F)n(C[C@@H]3CCO3)c2c1` [Example 65, (S)-2-(4-(6-((5,6-dihydro-4H-pyrrolo[1,2-b]pyrazol-2-yl)methoxy)pyridin-2-yl)-2,5-difluorobenzyl)-1-(oxetan-2-ylmethyl)-1H-benzo[d]imidazole-6-carboxylic acid], it took 0.19 nM to reach a half-maximal effect (EC50).

Consider `COc1nnc(COc2cccc(-c3ccc(Cc4nc5ccc(C(=O)O)cc5n4[C@@H]4COCC4(C)C)c(F)c3)n2)s1` [Example 401, (S)-1-(4,4-dimethyltetrahydrofuran-3-yl)-2-(2-fluoro-4-(6-((5-methoxy-1,3,4-thiadiazol-2-yl)methoxy)pyridin-2-yl)benzyl)-1H-benzo[d]imidazole-6-carboxylic acid], for which the EC50 (as a rule, the midpoint of the concentration-response curve) was determined as 0.487 nM.

For `O=C(O)c1ccc2nc(Cc3cc(F)c(-c4cccc(OCc5ncc(C#Cc6cnsc6)cc5F)n4)cc3F)n(C[C@@H]3CCO3)c2c1` [Example 285, (S)-2-(2,5-difluoro-4-(6-((3-fluoro-5-(isothiazol-4-ylethynyl)pyridin-2-yl)methoxy)pyridin-2-yl)benzyl)-1-(oxetan-2-ylmethyl)-1H-benzo[d]imidazole-6-carboxylic acid], a half-maximal response (EC50) required 0.126 nM.

Consider `Cn1ncc2cc(COc3cccc(-c4cc(F)c(Cc5nc6ccc(C(=O)O)cc6n5C[C@@H]5CCO5)cc4F)n3)sc21` [Example 230, 2-[[2,5-difluoro-4-[6-[(1-methylthieno[2,3-c]pyrazol-5-yl)methoxy]-2-pyridyl]phenyl]methyl]-3-[[(2S)-oxetan-2-yl]methyl]benzimidazole-5-carboxylic acid], for which a half-maximal response (EC50) required 0.33 nM. Against the preceding molecule, the EC50 is about 2.6-fold higher.

`O=C(O)c1ccc2nc(Cc3cc(F)c(-c4cccc(OCc5ccc(C(F)(F)F)s5)n4)cc3F)n(C[C@@H]3CCO3)c2c1` [Example 123, (S)-2-(2,5-difluoro-4-(6-((5-(trifluoromethyl)thiophen-2-yl)methoxy)pyridin-2-yl)benzyl)-1-(oxetan-2-ylmethyl)-1H-benzo[d]imidazole-6-carboxylic acid] gave an EC50 of 2.65 nM.

`O=C(O)c1ccc2nc(Cc3cc(F)c(-c4cccc(OCc5ncc(-c6cncs6)s5)n4)cc3F)n(C[C@@H]3CCO3)c2c1` [Example 101, (S)-2-(4-(6-([5,5′-bithiazol]-2-ylmethoxy)pyridin-2-yl)-2,5-difluorobenzyl)-1-(oxetan-2-ylmethyl)-1H-benzo[d]imidazole-6-carboxylic acid] had an EC50 of 0.14 nM. This EC50 is about 19-fold lower than that of the molecule before.

Take `O=C(O)c1ccc2nc(Cc3cc(F)c(-c4cccc(OCc5cn6ccccc6n5)n4)cc3F)n(C[C@@H]3CCO3)c2c1` [Example 30, (S)-2-(2,5-difluoro-4-(6-(imidazo[1,2-a]pyridin-2-ylmethoxy)pyridin-2-yl)benzyl)-1-(oxetan-2-ylmethyl)-1H-benzo[d]imidazole-6-carboxylic acid]: the EC50 amounted to 1.99 nM.

`Cn1nc(COc2cccc(-c3cc(F)c(Cc4nc5ccc(C(=O)O)cc5n4C[C@@H]4CCO4)cc3F)n2)cc1C(F)(F)F` [Example 71, (S)-2-(2,5-difluoro-4-(6-((1-methyl-5-(trifluoromethyl)-1H-pyrazol-3-yl)methoxy)pyridin-2-yl)benzyl)-1-(oxetan-2-ylmethyl)-1H-benzo[d]imidazole-6-carboxylic acid] showed an EC50 of 0.29 nM.

Regarding `O=C(O)c1ccc2nc(Cc3cc(F)c(-c4cccc(OCc5nnc(C6CC6)s5)n4)cc3F)n(C[C@@H]3CCO3)c2c1` [Example 307, (S)-2-(4-(6-((5-cyclopropyl-1,3,4-thiadiazol-2-yl)methoxy)pyridin-2-yl)-2,5-difluorobenzyl)-1-(oxetan-2-ylmethyl)-1H-benzo[d]imidazole-6-carboxylic acid], a half-maximal response (EC50) required 0.59 nM. Compared with the last molecule, the EC50 is about 2-fold higher.

Molecule `O=C(O)c1ccc2nc(Cc3cc(F)c(-c4cccc(OCc5ccn(CC(F)(F)F)n5)n4)cc3F)n(C[C@@H]3CCO3)c2c1` [Example 66, (S)-2-(2,5-difluoro-4-(6-((1-(2,2,2-trifluoroethyl)-1H-pyrazol-3-yl)methoxy)pyridin-2-yl)benzyl)-1-(oxetan-2-ylmethyl)-1H-benzo[d]imidazole-6-carboxylic acid] yielded an EC50 of 6.65 nM.

Take `O=C(O)c1ccc2nc(Cc3cc(F)c(-c4cccc(OCc5ccn(C6CC6)n5)n4)cc3F)n(C[C@@H]3CCO3)c2c1` [Example 6, (S)-2-(4-(6-((1-cyclopropyl-1H-pyrazol-3-yl)methoxy)pyridin-2-yl)-2,5-difluorobenzyl)-1-(oxetan-2-ylmethyl)-1H-benzo[d]imidazole-6-carboxylic acid]: the EC50 came to 3.09 nM. This EC50 is about 2.2-fold lower than that of the molecule before.

As for `CCOc1nnc(COc2nc(-c3cc(F)c(Cc4nc5ccc(C(=O)O)cc5n4CC4(CF)CC4)cc3F)ccc2F)s1` [Example 256, 2-(4-(6-((5-ethoxy-1,3,4-thiadiazol-2-yl)methoxy)-5-fluoropyridin-2-yl)-2,5-difluorobenzyl)-1-((1-(fluoromethyl)cyclopropyl)methyl)-1H-benzo[d]imidazole-6-carboxylic acid], the concentration for a half-maximal effect (EC50) came to 0.443 nM.

`Cn1cc(Cl)c(COc2cccc(-c3cc(F)c(Cc4nc5ccc(C(=O)O)cc5n4C[C@@H]4CCO4)cc3F)n2)n1` [Example 78, (S)-2-(4-(6-((4-chloro-1-methyl-1H-pyrazol-3-yl)methoxy)pyridin-2-yl)-2,5-difluorobenzyl)-1-(oxetan-2-ylmethyl)-1H-benzo[d]imidazole-6-carboxylic acid] showed an EC50 of 9.4 nM. This EC50 is about 21-fold higher than that of the molecule before.

`NC(=O)c1ccc(COc2cccc(-c3cc(F)c(Cc4nc5ccc(C(=O)O)cc5n4C[C@@H]4CCO4)cc3F)n2)c(F)n1` [Example 240, 2-[[4-[6-[(6-carbamoyl-2-fluoro-3-pyridyl)methoxy]-2-pyridyl]-2,5-difluoro-phenyl]methyl]-3-[[(2S)-oxetan-2-yl]methyl]benzimidazole-5-carboxylic acid]: the response was half-maximal at 1.13 nM (EC50). Compared with the last molecule, the EC50 is about 8.3-fold lower.

The molecule `Cc1nnc(COc2cccc(-c3cc(F)c(Cc4nc5ccc(C(=O)O)cc5n4[C@@H]4COCC4(C)C)c(F)c3F)n2)s1` (single isomer, unassigned) [Example 281A] registered an EC50 of 0.27 nM.

Turning to `Cn1ccc(-c2cnc(COc3cccc(-c4cc(F)c(Cc5nc6ccc(C(=O)O)cc6n5C[C@@H]5CCO5)cc4F)n3)s2)n1` [Example 103, (S)-2-(2,5-difluoro-4-(6-((5-(1-methyl-1H-pyrazol-3-yl)thiazol-2-yl)methoxy)pyridin-2-yl)benzyl)-1-(oxetan-2-ylmethyl)-1H-benzo[d]imidazole-6-carboxylic acid], the EC50 came to 0.23 nM. This EC50 and that of the molecule before are within 1.5-fold of each other.
